# Patent US20250195530A1, “POLQ INHIBITORS” (ASTRAZENECA AB, priority 2022, published 2025)
# Like-named read-outs stand apart in the source and are kept apart here.
# Test system: DLD-1 BRCA2−/− cells
# Test: Homologous recombination synthetic lethal inhibition of proliferation, DLD-1 BRCA2-/- (Cell Titre Glo 3D)
# Format: cell-based
# Settings: for IC50: Homo sapiens; for POLQ PD Prolif Lumin: DLD-1 BRCA2-/- proliferation
# From the text: This assay identifies anti-proliferative effects of POLQ compounds in the homologous recombination deficient colorectal cell line DLD-1 BRCA2−/− over 8-9 population doublings (7 days for DLD-1 and 12 days for DLD-1 BRCA2−/−). DLD1 BRCA2 wt are used as a control to detect cell toxic effects not specific to homologous recombination deficiency.
# DLD-1 BRCA2−/− and DLD-1 cells were kept in continuous culture in Assay Medium (RPMI 1640 phenol red free (Sigma R7509) containing 1% GlutaMAX (Gibco 35050) and 10% Foetal Bovine Serum (Gibco 10270-106)). On the day of the assay cells in culture of ˜80-90% confluent were used. Cell monolayers were washed with 10 mL PBS, then removed and added 2 mL TrypLE Express (Gibco 12604). The cells with TrypLE Express were incubated for 5 minutes in cell culture incubator and then the detached cells resuspend in 15 mL Assay Medium. Cells were counted using a ViCell and the cell images were monitored for clumps of cells, ideally they should be single or <3 cell clusters. The cells were diluted to 3,000 cells/mL of DLD-1 BRCA2−/− and 1,500 cells/mL of DLD-1 in Assay Medium and 100 μL added per well of transparent bottomed, black, tissue culture-treated 96-well plates (CoStar, No. 3904) Assay Ready Plates. The Assay Ready Plates contain a 10 point 10 μM to 0.51 nM dose range with three-fold dilutions in DMSO with a final volume of 100 nL. The plates were incubated at 37° C. with 5% C02 for 6 days. On day 6, 100 μL/well of Assay Medium was added to duplicate Assay Ready Plates. 90 μL of culture medium was removed from the cell plates and replenished with the Assay Media and compounds from the duplicate Assay Ready Plates using the Bravo. The plates were further incubated at 37° C. with 5% CO2. On day 7 the plates containing DLD-1 and Cell Titre Glo 3D (Promega G9683) were equilibrated to room temperature, then 60 μL of Cell Titre Glo 3D was added per well and incubated on a shaking platform for 30 min. Plates were read on the Envision measuring luminescence for 1 second per well. On day 12 the plates containing DLD-1 BRCA2−/− cells and Cell Titre Glo 3D (Promega G9683) were equilibrated to room temperature, then 60 μL Cell Titre Glo 3D added per well and incubated on a shaking platform for 30 min. Plates were read on the Envision measuring luminescence for 1 second per well. The data was exported into a suitable software package (such as Genedata) to perform curve fitting analysis. Inhibition of cell proliferation was expressed as an IC5o value and was determined by calculation of the concentration of compound that was required to give a 50% reduction of the average maximum Total Intensity signal.
# [1] = DLD-1, DLD-1 BRCA2 −/−, mean, read-out: POLQ PD Prolif Lumin BRCA2 −/− mean pIC50 (converted)
# [2] = DLD-1, first proliferation column (c5), DLD-1 BRCA2-/-, read-out: POLQ PD Prolif Lumin (converted)
# [3] = DLD-1, DLD-1 BRCA2-/- proliferation, column head only partly shown, read-out: POLQ PD Prolif Lumin (converted)
smiles,measurement,setting,value
"CC(CCOc1ccc(-c2nc3c(OC4(C)CC4)ncnc3n2Cc2cc(C(F)(F)F)cc(Cl)c2F)c(Cl)c1)C(=O)O (racemic) [Example U35, 4-(3-chloro-4-(9-(3-chloro-2-fluoro-5-(trifluoromethyl)benzyl)-6-(1-methylcyclopropoxy)-9H-purin-8-yl)phenoxy)-2-methylbutanoic acid]",IC50,[1],158 nM
"Cc1ccc(Cl)cc1Cn1c(-c2ccc(OCCC(C)C(=O)O)cc2Cl)nc2c(OC3(C)CC3)ncnc21 (racemic) [Example U36, 4-(3-chloro-4-(9-(5-chloro-2-methylbenzyl)-6-(1-methylcyclopropoxy)-9H-purin-8-yl)phenoxy)-2-methylbutanoic acid]",IC50,[1],316 nM
"CC(CCOc1ccc(-c2nc3c(OC4(C)CC4)ncnc3n2Cc2cccc(Cl)c2C#N)c(Cl)c1)C(=O)O (racemic) [Example U37, 4-(3-chloro-4-(9-(3-chloro-2-cyanobenzyl)-6-(1-methylcyclopropoxy)-9H-purin-8-yl)phenoxy)-2-methylbutanoic acid]",IC50,[1],2000 nM
"CC(COc1ccc(-c2nc3c(OC4(C)CC4)ncnc3n2Cc2cc(Cl)ccc2F)c(Cl)c1)CC(=O)O (racemic) [Example U45, 4-(3-chloro-4-(9-(5-chloro-2-fluorobenzyl)-6-(1-methylcyclopropoxy)-9H-purin-8-yl)phenoxy)-3-methylbutanoic acid]",IC50,[1],79.4 nM
"COc1ncc(Cl)cc1Cn1c(-c2ccc(OCCC(C)C(=O)O)cc2Cl)nc2c(OC3(C)CC3)ncnc21 (racemic) [Example U53, 4-(3-chloro-4-(9-((5-chloro-2-methoxypyridin-3-yl)methyl)-6-(1-methylcyclopropoxy)-9H-purin-8-yl)phenoxy)-2-methylbutanoic acid]",IC50,[1],316 nM
"CCOc1ccc(Cl)cc1Cn1c(-c2ccc(OCCC(C)C(=O)O)cc2Cl)nc2c(OC3(C)CC3)ncnc21 (racemic) [Example U59, 4-(3-chloro-4-(9-(5-chloro-2-ethoxybenzyl)-6-(1-methylcyclopropoxy)-9H-purin-8-yl)phenoxy)-2-methylbutanoic acid]",IC50,[1],63.1 nM
"CC(CCOc1ccc(-c2nc3c(OC4(C)CC4)ncnc3n2Cc2cc(Cl)ccc2OC(F)F)c(Cl)c1)C(=O)O (racemic) [Example U60, 4-(3-chloro-4-(9-(5-chloro-2-(difluoromethoxy)benzyl)-6-(1-methylcyclopropoxy)-9H-purin-8-yl)phenoxy)-2-methylbutanoic acid]",IC50,[1],126 nM
"COc1c(F)cc(Cl)cc1Cn1c(-c2ccc(OCCC(C)C(=O)O)cc2Cl)nc2c(OC3(C)CC3)ncnc21 (racemic) [Example U61, 4-(3-chloro-4-(9-(5-chloro-3-fluoro-2-methoxybenzyl)-6-(1-methylcyclopropoxy)-9H-purin-8-yl)phenoxy)-2-methylbutanoic acid]",IC50,[1],158 nM
"Cc1ccnc(Cn2c(-c3ccc(O[C@@H]4CC[C@@H](O)C4)cc3Cl)nc3c(OC4(C)CC4)ncnc32)c1 (relative stereo) [Example T330, rel-(1R,3R)-3-(3-chloro-4-(6-(1-methylcyclopropoxy)-9-((4-methylpyridin-2-yl)methyl)-9H-purin-8-yl)phenoxy)cyclopentan-1-ol]",IC50,"DLD-1, first proliferation column (c5), taken as DLD-1 BRCA2-/-, read-out: POLQ PD Prolif Lumin (converted)",200 nM
"CC1(Oc2ncnc3c2nc(-c2ccc(OCCN4C[C@H]5CC[C@@H]4CN5)cc2Cl)n3Cc2ccccc2)CC1 (relative stereo) [Example T604, rel-(1R,4R)-2-(2-(4-(9-benzyl-6-(1-methylcyclopropoxy)-9H-purin-8-yl)-3-chlorophenoxy)ethyl)-2,5-diazabicyclo[2.2.2]octane]",IC50,"DLD-1, first proliferation column, DLD-1 BRCA2-/-, read-out: POLQ PD Prolif Lumin (converted)",251 nM
"CC(Cc1ccccn1)n1c(-c2ccc(OCCN3CCNCC3)cc2Cl)nc2c(OC3(C)CC3)ncnc21 (single isomer, unassigned) [Example S7, 8-(2-chloro-4-(2-(piperazin-1-yl)ethoxy)phenyl)-6-(1-methylcyclopropoxy)-9-(1-(pyridin-2-yl)propan-2-yl)-9H-purine]",IC50,"DLD-1, 288 h, DLD-1 BRCA2−/− cells, 12 days, read-out: POLQ PD Prolif Lumin BRCA2 −/− mean pIC50 (converted)",6310 nM
"Cc1ccnc(Cn2c(-c3ccc(OCC(F)CO)cc3Cl)nc3c(OC4(C)CC4)ncnc32)c1 (single isomer, unassigned) [Example T109, 3-(3-chloro-4-(6-(1-methylcyclopropoxy)-9-((4-methylpyridin-2-yl)methyl)-9H-purin-8-yl)phenoxy)-2-fluoropropan-1-ol]",IC50,[2],158 nM
"Cc1ccnc(Cn2c(-c3ccc(OC(C)CO)cc3Cl)nc3c(OC4(C)CC4)ncnc32)c1 (single isomer, unassigned) [Example T127, 2-(3-chloro-4-(6-(1-methylcyclopropoxy)-9-((4-methylpyridin-2-yl)methyl)-9H-purin-8-yl)phenoxy)propan-1-ol]",IC50,[2],251 nM
"Cc1ccnc(Cn2c(-c3ccc(C4CCC(=O)N4)cc3Cl)nc3c(OC4(C)CC4)ncnc32)c1 (single isomer, unassigned) [Example T172, 5-(3-chloro-4-(6-(1-methylcyclopropoxy)-9-((4-methylpyridin-2-yl)methyl)-9H-purin-8-yl)phenyl)pyrrolidin-2-one]",IC50,[2],398 nM
"Cc1ccnc(Cn2c(-c3ccc(C4CNC(=O)C4)cc3Cl)nc3c(OC4(C)CC4)ncnc32)c1 (single isomer, unassigned) [Example T174, 4-(3-chloro-4-(6-(1-methylcyclopropoxy)-9-((4-methylpyridin-2-yl)methyl)-9H-purin-8-yl)phenyl)pyrrolidin-2-one]",IC50,[2],501 nM
"CC(CCOc1ccc(-c2nc3c(OC4(C)CC4)ncnc3n2Cc2cccc(F)c2F)c(Cl)c1)C(=O)O (single isomer, unassigned) [Example T261, 4-(3-chloro-4-(9-(2,3-difluorobenzyl)-6-(1-methylcyclopropoxy)-9H-purin-8-yl)phenoxy)-2-methylbutanoic acid]",IC50,[3],631 nM
"CC(CCOc1ccc(-c2nc3c(OC4(C)CC4)ncnc3n2Cc2cccc(F)c2F)c(Cl)c1)C(=O)O (single isomer, unassigned) [Example T262, 4-(3-chloro-4-(9-(2,3-difluorobenzyl)-6-(1-methylcyclopropoxy)-9H-purin-8-yl)phenoxy)-2-methylbutanoic acid]",POLQ PD Prolif Lumin,column head only partly shown,6.3
"CC(CCOc1ccc(-c2nc3c(OC4(C)CC4)ncnc3n2Cc2c(F)cccc2F)c(Cl)c1)C(=O)O (single isomer, unassigned) [Example T263, 4-(3-chloro-4-(9-(2,6-difluorobenzyl)-6-(1-methylcyclopropoxy)-9H-purin-8-yl)phenoxy)-2-methylbutanoic acid]",IC50,[3],794 nM
"CC(CCOc1ccc(-c2nc3c(OC4(C)CC4)ncnc3n2Cc2cccc(Cl)c2F)c(Cl)c1)C(=O)O (single isomer, unassigned) [Example T270, 4-(3-chloro-4-(9-(3-chloro-2-fluorobenzyl)-6-(1-methylcyclopropoxy)-9H-purin-8-yl)phenoxy)-2-methylbutanoic acid]",IC50,[3],501 nM
"CC(CCOc1ccc(-c2nc3c(OC4(C)CC4)ncnc3n2Cc2cccc(Cl)c2F)c(Cl)c1)C(=O)O (single isomer, unassigned) [Example T271, 4-(3-chloro-4-(9-(3-chloro-2-fluorobenzyl)-6-(1-methylcyclopropoxy)-9H-purin-8-yl)phenoxy)-2-methylbutanoic acid]",POLQ PD Prolif Lumin,column head only partly shown,6.4
"CC(CCOc1ccc(-c2nc3c(OC4(C)CC4)ncnc3n2Cc2cc(F)cc(Cl)c2)c(Cl)c1)C(=O)O (single isomer, unassigned) [Example T272, 4-(3-chloro-4-(9-(3-chloro-5-fluorobenzyl)-6-(1-methylcyclopropoxy)-9H-purin-8-yl)phenoxy)-2-methylbutanoic acid]",IC50,[3],200 nM
"CC(CCOc1ccc(-c2nc3c(OC4(C)CC4)ncnc3n2Cc2cc(F)cc(Cl)c2)c(Cl)c1)C(=O)O (single isomer, unassigned) [Example T273, 4-(3-chloro-4-(9-(3-chloro-5-fluorobenzyl)-6-(1-methylcyclopropoxy)-9H-purin-8-yl)phenoxy)-2-methylbutanoic acid]",POLQ PD Prolif Lumin,column head only partly shown,6.8
